In ChEMBL document CHEMBL5154747, “Discovery of new carbonic anhydrase IX inhibitors as anticancer agents by toning the hydrophobic and hydrophilic rims of the active site to encounter the dual-tail approach” (Eur J Med Chem, 2022):

Tests used:
Assay type in all cases: functional
MCF7 = experiment: Anticancer activity against human MCF7 cells assessed as cell growth inhibition at 10 uM incubated for 48 hrs by SRB assay relative to control; details: read-out: GI
OVCAR-4 [1] = experiment: Anticancer activity against human OVCAR-4 cells assessed as cell growth inhibition at 10 uM incubated for 48 hrs by SRB assay relative to control; details: read-out: GI
DU-145 [2] = experiment: Anticancer activity against human DU-145 cells assessed as cell growth inhibition incubated for 48 hrs by SRB assay
A549 [3] = experiment: Anticancer activity against human A549 cells assessed as cell growth inhibition at 10 uM incubated for 48 hrs by SRB assay relative to control; details: read-out: GI
MDA-MB-231 [4] = experiment: Anticancer activity against human MDA-MB-231 cells assessed as cell growth inhibition incubated for 48 hrs by SRB assay
NCI/ADR-RES = experiment: Anticancer activity against human NCI/ADR-RES cells assessed as cell growth inhibition at 10 uM incubated for 48 hrs by SRB assay relative to control; details: read-out: GI
OVCAR-4 [5] = experiment: Anticancer activity against human OVCAR-4 cells assessed as cell growth inhibition incubated for 48 hrs by SRB assay
A498 [6] = experiment: Anticancer activity against human A498 cells assessed as cell growth inhibition incubated for 48 hrs by SRB assay
NCI-H23 = experiment: Anticancer activity against human NCI-H23 cells assessed as cell growth inhibition incubated for 48 hrs by SRB assay
SK-MEL-2 [7] = experiment: Anticancer activity against human SK-MEL-2 cells assessed as cell growth inhibition incubated for 48 hrs by SRB assay
OVCAR-8 = experiment: Anticancer activity against human OVCAR-8 cells assessed as cell growth inhibition incubated for 48 hrs by SRB assay
MDA-MB-435 = experiment: Anticancer activity against human MDA-MB-435 cells assessed as cell growth inhibition at 10 uM incubated for 48 hrs by SRB assay relative to control; details: read-out: GI
TK-10 [8] = experiment: Anticancer activity against human TK-10 cells assessed as cell growth inhibition incubated for 48 hrs by SRB assay
PC-3 = experiment: Anticancer activity against human PC-3 cells assessed as cell growth inhibition at 10 uM incubated for 48 hrs by SRB assay relative to control; details: read-out: GI
MOLT-4 [9] = experiment: Anticancer activity against human MOLT-4 cells assessed as cell growth inhibition incubated for 48 hrs by SRB assay
TK-10 [10] = experiment: Anticancer activity against human TK-10 cells assessed as cell growth inhibition at 10 uM incubated for 48 hrs by SRB assay relative to control; details: read-out: GI
SR = experiment: Anticancer activity against human SR cells assessed as cell growth inhibition incubated for 48 hrs by SRB assay
NCI-H226 = experiment: Anticancer activity against human NCI-H226 cells assessed as cell growth inhibition at 10 uM incubated for 48 hrs by SRB assay relative to control; details: read-out: GI
786-0 = experiment: Anticancer activity against human 786-0 cells assessed as cell growth inhibition incubated for 48 hrs by SRB assay
RXF 393 = experiment: Anticancer activity against human RXF 393 cells assessed as cell growth inhibition incubated for 48 hrs by SRB assay
NCI-H322M [11] = experiment: Anticancer activity against human NCI-H322M cells assessed as cell growth inhibition at 10 uM incubated for 48 hrs by SRB assay relative to control; details: read-out: GI
BT-549 = experiment: Anticancer activity against human BT-549 cells assessed as cell growth inhibition at 10 uM incubated for 48 hrs by SRB assay relative to control; details: read-out: GI
UACC-257 = experiment: Anticancer activity against human UACC-257 cells assessed as cell growth inhibition at 10 uM incubated for 48 hrs by SRB assay relative to control; details: read-out: GI
SW-620 = experiment: Anticancer activity against human SW-620 cells assessed as cell growth inhibition incubated for 48 hrs by SRB assay
MOLT-4 [12] = experiment: Anticancer activity against human MOLT-4 cells assessed as cell growth inhibition at 10 uM incubated for 48 hrs by SRB assay relative to control; details: read-out: GI
A549 [13] = experiment: Anticancer activity against human A549 cells assessed as cell growth inhibition incubated for 48 hrs by SRB assay
SF-268 = experiment: Anticancer activity against human SF-268 cells assessed as cell growth inhibition at 10 uM incubated for 48 hrs by SRB assay relative to control; details: read-out: GI
Malme-3M = experiment: Anticancer activity against human Malme-3M cells assessed as cell growth inhibition incubated for 48 hrs by SRB assay
HCT-15 = experiment: Anticancer activity against human HCT-15 cells assessed as cell growth inhibition incubated for 48 hrs by SRB assay
SK-MEL-2 [14] = experiment: Anticancer activity against human SK-MEL-2 cells assessed as cell growth inhibition at 10 uM incubated for 48 hrs by SRB assay relative to control; details: read-out: GI
SK-MEL-5 = experiment: Anticancer activity against human SK-MEL-5 cells assessed as cell growth inhibition incubated for 48 hrs by SRB assay
MDA-MB-231 [15] = experiment: Anticancer activity against human MDA-MB-231 cells assessed as cell growth inhibition at 10 uM incubated for 48 hrs by SRB assay relative to control; details: read-out: GI
A498 [16] = experiment: Anticancer activity against human A498 cells assessed as cell growth inhibition at 10 uM incubated for 48 hrs by SRB assay relative to control; details: read-out: GI
SF-295 = experiment: Anticancer activity against human SF-295 cells assessed as cell growth inhibition at 10 uM incubated for 48 hrs by SRB assay relative to control; details: read-out: GI
KM12 = experiment: Anticancer activity against human KM12 cells assessed as cell growth inhibition at 10 uM incubated for 48 hrs by SRB assay relative to control; details: read-out: GI
DU-145 [17] = experiment: Anticancer activity against human DU-145 cells assessed as cell growth inhibition at 10 uM incubated for 48 hrs by SRB assay relative to control; details: read-out: GI
IGROV-1 = experiment: Anticancer activity against human IGROV-1 cells assessed as cell growth inhibition incubated for 48 hrs by SRB assay
HOP-62 = experiment: Anticancer activity against human HOP-62 cells assessed as cell growth inhibition at 10 uM incubated for 48 hrs by SRB assay relative to control; details: read-out: GI
HT-29 = experiment: Anticancer activity against human HT-29 cells assessed as cell growth inhibition incubated for 48 hrs by SRB assay
NCI-H322M [18] = experiment: Anticancer activity against human NCI-H322M cells assessed as cell growth inhibition incubated for 48 hrs by SRB assay
[19] = read-out: LC50 (the source's name)

SMILES: NS(=O)(=O)c1ccc(Nc2nc(N/N=C/c3ccc(C(F)(F)F)cc3)nc(Nc3ccccc3)n2)cc1
- inhibition of growth at 10 µM (MCF7): 89%
- inhibition of growth at 10 µM (OVCAR-4 [1]): 59%
- GI50 (DU-145 [2]): 3.31 µM
- LC50 (50% lethal concentration) (DU-145 [2]): 36.7 µM
- inhibition of growth at 10 µM (A549 [3]): 72%
- GI50 (MDA-MB-231 [4]): 2.31 µM
- LC50 (concentration killing 50% of cells) (MDA-MB-231 [4]): 33.7 µM
- inhibition of growth at 10 µM (NCI/ADR-RES): 12%
- GI50 (OVCAR-4 [5]): 3.69 µM
- LC50 (concentration killing 50% of cells) (OVCAR-4 [5]): > 100 µM
- GI50 (A498 [6]): 2.61 µM
- CC50 (A498 [6]; [19]): 63.8 µM
- GI50 (NCI-H23): 1.95 µM
- CC50 (NCI-H23; [19]): 9.25 µM
- GI50 (SK-MEL-2 [7]): 2.17 µM
- CC50 (SK-MEL-2 [7]; [19]): 42.7 µM
- GI50 (OVCAR-8): 2.83 µM
- LC50 (OVCAR-8): 35.5 µM
- inhibition of growth at 10 µM (MDA-MB-435): 80%
- GI50 (TK-10 [8]): 3.45 µM
- CC50 (TK-10 [8]; [19]): 33.7 µM
- inhibition of growth at 10 µM (PC-3): 85%
- GI50 (MOLT-4 [9]): 3.06 µM
- CC50 (MOLT-4 [9]; [19]): > 100 µM
- inhibition of growth at 10 µM (TK-10 [10]): 35%
- GI50 (SR): 3.07 µM
- CC50 (SR; [19]): > 100 µM
- inhibition of growth at 10 µM (NCI-H226): 63%
- GI50 (786-0): 2.22 µM
- CC50 (786-0; [19]): 33.7 µM
- GI50 (RXF 393): 1.82 µM
- CC50 (RXF 393; [19]): 35.5 µM
- inhibition of growth at 10 µM (NCI-H322M [11]): 47%
- inhibition of growth at 10 µM (BT-549): 51%
- inhibition of growth at 10 µM (UACC-257): 60%
- GI50 (SW-620): 3.3 µM
- CC50 (SW-620; [19]): > 100 µM
- inhibition of growth at 10 µM (MOLT-4 [12]): 90%
- GI50 (A549 [13]): 3.11 µM
- LC50 (A549 [13]): 87.2 µM
- inhibition of growth at 10 µM (SF-268): 49%
- GI50 (Malme-3M): 1.87 µM
- CC50 (Malme-3M; [19]): 8.15 µM
- GI50 (HCT-15): 2.32 µM
- CC50 (HCT-15; [19]): 52 µM
- inhibition of growth at 10 µM (SK-MEL-2 [14]): 71%
- GI50 (SK-MEL-5): 1.74 µM
- LC50 (SK-MEL-5): 5.82 µM
- inhibition of growth at 10 µM (MDA-MB-231 [15]): 73%
- inhibition of growth at 10 µM (A498 [16]): 60%
- inhibition of growth at 10 µM (SF-295): 95%
- inhibition of growth at 10 µM (KM12): 78%
- inhibition of growth at 10 µM (DU-145 [17]): 60%
- GI50 (IGROV-1): 2.64 µM
- CC50 (IGROV-1; [19]): 53.8 µM
- inhibition of growth at 10 µM (HOP-62): 61%
- GI50 (HT-29): 2.44 µM
- CC50 (HT-29; [19]): 50.1 µM
- GI50 (NCI-H322M [18]): 3.31 µM
- CC50 (NCI-H322M [18]; [19]): 36.1 µM

SMILES: NS(=O)(=O)c1ccc(Nc2nc(N/N=C/c3ccc([N+](=O)[O-])cc3)nc(Nc3ccccc3)n2)cc1
- inhibition of growth at 10 µM (MCF7): 90%
- inhibition of growth at 10 µM (OVCAR-4 [1]): 44%
- inhibition of growth at 10 µM (A549 [3]): < 10%
- inhibition of growth at 10 µM (NCI/ADR-RES): < 10%
- inhibition of growth at 10 µM (MDA-MB-435): 66%
- inhibition of growth at 10 µM (PC-3): 49%
- inhibition of growth at 10 µM (TK-10 [10]): < 10%
- inhibition of growth at 10 µM (NCI-H226): 40%
- inhibition of growth at 10 µM (NCI-H322M [11]): 60%
- inhibition of growth at 10 µM (BT-549): 81%
- inhibition of growth at 10 µM (UACC-257): 17%
- inhibition of growth at 10 µM (MOLT-4 [12]): 88%
- inhibition of growth at 10 µM (SF-268): 73%
- inhibition of growth at 10 µM (SK-MEL-2 [14]): 81%
- inhibition of growth at 10 µM (MDA-MB-231 [15]): 54%
- inhibition of growth at 10 µM (A498 [16]): 81%
- inhibition of growth at 10 µM (SF-295): 42%
- inhibition of growth at 10 µM (KM12): 62%
- inhibition of growth at 10 µM (DU-145 [17]): 56%
- inhibition of growth at 10 µM (HOP-62): 90%

SMILES: NS(=O)(=O)c1ccc(Nc2nc(N/N=C/c3ccccc3)nc(Nc3ccccc3)n2)cc1
- inhibition of growth at 10 µM (MCF7): 46%
- inhibition of growth at 10 µM (OVCAR-4 [1]): 15%
- inhibition of growth at 10 µM (A549 [3]): 28%
- inhibition of growth at 10 µM (NCI/ADR-RES): < 10%
- inhibition of growth at 10 µM (MDA-MB-435): 26%
- inhibition of growth at 10 µM (PC-3): 31%
- inhibition of growth at 10 µM (TK-10 [10]): < 10%
- inhibition of growth at 10 µM (NCI-H226): 22%
- inhibition of growth at 10 µM (NCI-H322M [11]): 27%
- inhibition of growth at 10 µM (BT-549): < 10%
- inhibition of growth at 10 µM (UACC-257): < 10%
- inhibition of growth at 10 µM (MOLT-4 [12]): 58%
- inhibition of growth at 10 µM (SF-268): 19%
- inhibition of growth at 10 µM (SK-MEL-2 [14]): 10%
- inhibition of growth at 10 µM (MDA-MB-231 [15]): 16%
- inhibition of growth at 10 µM (A498 [16]): 42%
- inhibition of growth at 10 µM (SF-295): 27%
- inhibition of growth at 10 µM (KM12): 26%
- inhibition of growth at 10 µM (DU-145 [17]): 38%
- inhibition of growth at 10 µM (HOP-62): < 10%
